ChEMBL document CHEMBL4390688, “Accelerating the discovery of DGAT1 inhibitors through the application of parallel medicinal chemistry (PMC)” (Bioorg Med Chem Lett, 2019)
pIC50, pKi: −log10 of the molar value.

How the values were obtained:
Adenosine receptor A2a [1] = biological target: T1, Adenosine receptor A2a (Homo sapiens, UniProt P29274); experiment: Activity against human A2AR assessed as inhibition of cAMP accumulation by cAMP functional assay
[2] = Mutagenicity in Salmonella typhimurium […] by Ames test; assay type: toxicity; conditions: salmonella enterica subsp. enterica serovar typhimurium
[3] = Mutagenicity in Salmonella typhimurium TA98 by Ames test; assay type: toxicity; conditions: salmonella enterica subsp. enterica serovar typhimurium
[4] = biological target: Voltage-gated inwardly rectifying potassium channel KCNH2 (Homo sapiens, UniProt Q12809); experiment: Inhibition of human ERG
Voltage-gated inwardly rectifying potassium channel KCNH2, sequence (Q12809 whole entry): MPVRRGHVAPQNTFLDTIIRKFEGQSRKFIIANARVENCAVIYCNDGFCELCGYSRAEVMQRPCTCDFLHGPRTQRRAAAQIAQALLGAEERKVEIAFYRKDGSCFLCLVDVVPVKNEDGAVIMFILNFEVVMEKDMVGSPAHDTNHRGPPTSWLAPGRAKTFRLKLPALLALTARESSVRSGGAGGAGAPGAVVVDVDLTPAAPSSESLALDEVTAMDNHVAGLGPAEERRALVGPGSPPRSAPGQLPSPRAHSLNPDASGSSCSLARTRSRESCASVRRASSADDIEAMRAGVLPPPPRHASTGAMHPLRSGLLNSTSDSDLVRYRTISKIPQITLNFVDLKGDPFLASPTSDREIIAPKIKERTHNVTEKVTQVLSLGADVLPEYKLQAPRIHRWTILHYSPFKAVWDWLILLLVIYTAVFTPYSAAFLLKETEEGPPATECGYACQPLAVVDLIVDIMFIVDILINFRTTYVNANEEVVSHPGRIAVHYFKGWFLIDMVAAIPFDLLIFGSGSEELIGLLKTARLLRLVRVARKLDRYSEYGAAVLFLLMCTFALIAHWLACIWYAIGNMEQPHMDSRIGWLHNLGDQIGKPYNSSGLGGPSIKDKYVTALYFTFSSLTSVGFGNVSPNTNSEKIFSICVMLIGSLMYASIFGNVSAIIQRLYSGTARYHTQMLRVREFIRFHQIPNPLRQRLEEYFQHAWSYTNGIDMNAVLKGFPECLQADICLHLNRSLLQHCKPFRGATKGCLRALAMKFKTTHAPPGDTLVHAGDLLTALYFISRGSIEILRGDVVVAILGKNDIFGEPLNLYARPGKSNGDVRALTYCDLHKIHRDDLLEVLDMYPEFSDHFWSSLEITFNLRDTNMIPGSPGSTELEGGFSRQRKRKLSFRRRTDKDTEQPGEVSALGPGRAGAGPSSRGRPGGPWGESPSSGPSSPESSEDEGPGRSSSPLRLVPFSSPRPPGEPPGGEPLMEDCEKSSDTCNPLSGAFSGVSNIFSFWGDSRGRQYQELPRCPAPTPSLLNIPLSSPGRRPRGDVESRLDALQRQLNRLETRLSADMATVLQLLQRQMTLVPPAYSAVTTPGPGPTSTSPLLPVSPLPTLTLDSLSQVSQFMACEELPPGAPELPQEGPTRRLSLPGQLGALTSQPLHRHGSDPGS

[5] = biological target: T2, Diacylglycerol O-acyltransferase 1 (Mus musculus, UniProt Q9Z2A7)
T2 sequence (Q9Z2A7 whole entry): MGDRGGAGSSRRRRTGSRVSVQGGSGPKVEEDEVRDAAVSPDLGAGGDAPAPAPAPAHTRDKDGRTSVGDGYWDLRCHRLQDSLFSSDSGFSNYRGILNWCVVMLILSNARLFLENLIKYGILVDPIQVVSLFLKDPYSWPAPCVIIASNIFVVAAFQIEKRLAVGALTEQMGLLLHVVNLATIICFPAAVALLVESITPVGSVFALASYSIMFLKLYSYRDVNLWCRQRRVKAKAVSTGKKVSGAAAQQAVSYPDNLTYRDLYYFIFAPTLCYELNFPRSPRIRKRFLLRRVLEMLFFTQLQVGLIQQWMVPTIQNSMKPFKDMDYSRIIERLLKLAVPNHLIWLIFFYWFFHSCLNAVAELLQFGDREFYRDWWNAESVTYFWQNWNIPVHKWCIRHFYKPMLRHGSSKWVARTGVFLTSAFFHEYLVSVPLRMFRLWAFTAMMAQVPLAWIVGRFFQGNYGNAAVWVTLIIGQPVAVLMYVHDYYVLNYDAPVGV
Description: Inhibition of mouse DGAT1

[6] = Mutagenicity in Salmonella typhimurium TA100 by Ames test; assay type: toxicity; conditions: salmonella enterica subsp. enterica serovar typhimurium
[7] = biological target: T3, Diacylglycerol O-acyltransferase 1 (Homo sapiens, UniProt O75907)
T3 sequence (O75907 whole entry): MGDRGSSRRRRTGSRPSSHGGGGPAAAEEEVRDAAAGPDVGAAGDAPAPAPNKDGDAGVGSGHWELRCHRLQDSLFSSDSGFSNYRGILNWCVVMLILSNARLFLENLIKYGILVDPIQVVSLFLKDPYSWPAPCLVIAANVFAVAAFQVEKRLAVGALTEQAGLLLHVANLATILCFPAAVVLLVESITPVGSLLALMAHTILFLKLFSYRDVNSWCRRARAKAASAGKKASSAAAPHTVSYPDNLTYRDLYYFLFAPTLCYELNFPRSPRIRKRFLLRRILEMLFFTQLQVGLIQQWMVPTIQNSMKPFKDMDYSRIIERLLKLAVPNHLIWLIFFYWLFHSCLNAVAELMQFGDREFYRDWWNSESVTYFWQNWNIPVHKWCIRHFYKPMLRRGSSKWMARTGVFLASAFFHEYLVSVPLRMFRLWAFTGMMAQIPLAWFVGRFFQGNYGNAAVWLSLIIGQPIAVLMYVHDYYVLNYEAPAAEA
Description: Inhibition of human DGAT1

[8] = biological target: T4, Sterol O-acyltransferase 1 (Homo sapiens, UniProt P35610)
T4 sequence (P35610 whole entry): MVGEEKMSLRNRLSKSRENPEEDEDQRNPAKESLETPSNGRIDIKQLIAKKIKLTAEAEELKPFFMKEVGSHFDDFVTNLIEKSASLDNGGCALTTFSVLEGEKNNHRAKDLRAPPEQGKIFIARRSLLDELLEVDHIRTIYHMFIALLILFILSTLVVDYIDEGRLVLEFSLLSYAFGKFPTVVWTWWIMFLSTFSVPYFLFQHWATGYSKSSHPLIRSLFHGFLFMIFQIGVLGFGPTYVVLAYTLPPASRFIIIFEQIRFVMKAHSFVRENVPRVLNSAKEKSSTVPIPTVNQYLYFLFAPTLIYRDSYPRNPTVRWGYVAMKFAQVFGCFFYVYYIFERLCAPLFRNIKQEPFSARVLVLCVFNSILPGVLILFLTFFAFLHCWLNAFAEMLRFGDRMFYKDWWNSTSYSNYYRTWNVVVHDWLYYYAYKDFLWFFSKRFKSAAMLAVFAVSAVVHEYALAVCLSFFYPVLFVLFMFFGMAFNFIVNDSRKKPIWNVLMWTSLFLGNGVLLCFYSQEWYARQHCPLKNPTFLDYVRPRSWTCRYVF
Description: Inhibition of human ACAT1

Mus musculus [9] = experiment: Reduction in lipid excursion in mouse at 3 mg/kg, po administered as single dose measured after 18 hrs by lipid tolerance test relative to control; assay type: functional; parameters: scale not given: the % may be the effect or the level left
[10] = Distribution coefficient, log D of compound; assay type: physicochemical; conditions: octanol/water
Homo sapiens = organism: Homo sapiens; experiment: Ratio of IC50 for human ACAT1 to IC50 for human DGAT1
Mus musculus [11] = experiment: Reduction in lipid excursion in mouse at 10 mg/kg, po QD measured at 18 hrs post dose by lipid tolerance test relative to control; assay type: functional; parameters: scale not given: the % may be the effect or the level left
Adenosine receptor A2a [12] = biological target: T1, Adenosine receptor A2a; experiment: Activity at human Adenosine A2A receptor; assay type: ADME
[13] = Cmax in Beagle dog at 1 mg/kg, iv or 2 mg/kg, po; assay type: ADME, organism-based, Canis lupus familiaris; conditions: in vivo
[14] = Oral bioavailability in Beagle dog at 2 mg/kg; assay type: ADME, organism-based, Canis lupus familiaris; conditions: in vivo
[15] = Volume of distribution at steady state in Sprague-Dawley rat at 1 mg/kg, iv or 2 mg/kg, po; assay type: ADME, organism-based; conditions: in vivo, read-out: Vdss
[16] = Oral bioavailability in Sprague-Dawley rat at 2 mg/kg; assay type: ADME, organism-based; conditions: in vivo
[17] = Mutagenicity in Salmonella typhimurium […] up to 30 to 5000 ug/plate by Ames test; assay type: toxicity; conditions: salmonella enterica subsp. enterica serovar typhimurium
[18] = Dose normalized AUC in Sprague-Dawley rat at 1 mg/kg, iv or 2 mg/kg, po; assay type: ADME, organism-based; conditions: in vivo
[19] = Half life in Sprague-Dawley rat at 1 mg/kg, iv or 2 mg/kg, po; assay type: ADME, organism-based; conditions: in vivo
[20] = Dose normalized AUC in Beagle dog at 1 mg/kg, iv or 2 mg/kg, po; assay type: ADME, organism-based, Canis lupus familiaris; conditions: in vivo
[21] = Clearance in Sprague-Dawley rat at 1 mg/kg, iv and 2 mg/kg, po; assay type: ADME, organism-based; conditions: in vivo
[22] = Mutagenicity in Salmonella typhimurium TA100 up to 30 to 5000 ug/plate by Ames test; assay type: toxicity; conditions: salmonella enterica subsp. enterica serovar typhimurium
Canis familiaris = experiment: Reduction in lipid excursion in dog at 1 mg/kg, po measured by lipid tolerance test relative to control; assay type: functional, Canis lupus familiaris; parameters: scale not given: the % may be the effect or the level left
[23] = Tmax in Sprague-Dawley rat at 1 mg/kg, iv or 2 mg/kg, po; assay type: ADME, organism-based; conditions: in vivo
[24] = Clearance in Beagle dog at 1 mg/kg, iv or 2 mg/kg, po; assay type: ADME, organism-based, Canis lupus familiaris; conditions: in vivo
[25] = Half life in Beagle dog at 1 mg/kg, iv or 2 mg/kg, po; assay type: ADME, organism-based, Canis lupus familiaris; conditions: in vivo
[26] = Volume of distribution at steady state in Beagle dog at 1 mg/kg, iv or 2 mg/kg, po; assay type: ADME, organism-based, Canis lupus familiaris; conditions: in vivo, read-out: Vdss
[27] = Mutagenicity in Salmonella typhimurium TA98 up to 30 to 5000 ug/plate by Ames test; assay type: toxicity; conditions: salmonella enterica subsp. enterica serovar typhimurium
[28] = Cmax in Sprague-Dawley rat at 1 mg/kg, iv or 2 mg/kg, po; assay type: ADME, organism-based; conditions: in vivo
[29] = Tmax in Beagle dog at 1 mg/kg, iv or 2 mg/kg, po; assay type: ADME, organism-based, Canis lupus familiaris; conditions: in vivo
[30] = Solubility of the compound at pH 7; assay type: physicochemical; conditions: buffer

T1 sequence (P29274 whole entry): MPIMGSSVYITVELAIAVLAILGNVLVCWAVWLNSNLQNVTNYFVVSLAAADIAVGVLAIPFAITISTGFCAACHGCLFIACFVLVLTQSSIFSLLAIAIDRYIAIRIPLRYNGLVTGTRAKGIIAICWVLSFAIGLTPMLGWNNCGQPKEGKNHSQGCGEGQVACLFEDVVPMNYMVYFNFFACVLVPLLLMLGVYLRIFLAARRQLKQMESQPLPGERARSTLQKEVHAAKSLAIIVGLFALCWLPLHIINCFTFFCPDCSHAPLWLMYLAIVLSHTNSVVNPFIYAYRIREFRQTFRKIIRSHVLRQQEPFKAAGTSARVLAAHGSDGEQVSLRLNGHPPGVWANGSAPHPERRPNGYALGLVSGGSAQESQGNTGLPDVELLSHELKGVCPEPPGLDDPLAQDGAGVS

Compound	pIC50 (Adenosine receptor A2a [1])	pKi [4]	pIC50 [5]	pIC50 [7]	pIC50 [8]	Activity (Mus musculus [9])	also measured
O=C(O)C[C@H]1CC[C@H](OC2CCN(c3ccc(-c4nc5ccccc5[nH]4)cn3)CC2)CC1	< 5.00	4.59	7.38	7.82	< 5.00	85%	Activity [2]: Toxic; Activity [3]: Toxic; Activity [6]: Toxic
CC1(C(=O)O)CCN(c2ccc(-c3ccc(-c4nc5cc(Cl)ccc5[nH]4)cn3)cn2)CC1	–	5.32	7.70	8.60	< 5.00	–	logD [10]: 1.45; Ratio IC50 (Homo sapiens): > 4000; Activity (Mus musculus [11]): 96%
O=C(O)C[C@H]1CC[C@@H](Oc2ccc(-c3ccc(-c4nc5cc(F)ccc5[nH]4)cn3)cn2)CC1	6.38	5.09	8.49	8.62	< 5.70	109%	–
O=C(O)C[C@H]1CC[C@@H](Oc2ccc(-c3ccc(-c4nc5cc(C(F)(F)F)cnc5[nH]4)cn3)cn2)CC1	6.01	4.63	8.02	8.15	< 5.70	92%	Activity (Adenosine receptor A2a [12]): Active
O=C(O)C[C@H]1CC[C@@H](Oc2ccc(-c3ccc(-c4nc5ccccc5[nH]4)cn3)cn2)CC1	6.35	4.57	8.28	8.28	< 5.70	92%	Activity (Adenosine receptor A2a [12]): Active
N#Cc1ccc2[nH]c(-c3ccc(-c4ccc(O[C@H]5CC[C@@H](CC(=O)O)CC5)nc4)nc3)nc2c1	6.37	5.57	7.75	8.44	< 5.00	63%	–
O=C(O)C[C@H]1CC[C@H](OC2CCN(c3ccc(-c4nc5cc(F)c(F)cc5[nH]4)cn3)CC2)CC1	5.46	4.39	7.34	8.19	< 5.00	84%	Cmax [13]: 2400 nM; bioavailability [14]: 40%; Vd [15]: 1.08 L/kg; bioavailability [16]: 17%; Activity [17]: Non-Toxic; AUC/dose [18]: 0.3 µM·h/mg/kg; half-life [19]: 1 h; AUC/dose [20]: 4.1 µM·h/mg/kg; clearance [21]: 17 mL/min/kg; Activity [22]: Non-Toxic; Activity (Canis familiaris): 100%; Tmax [23]: 1 h; clearance [24]: 3.4 mL/min/kg; half-life [25]: 3.2 h; Vd [26]: 0.81 L/kg; Activity [27]: Non-Toxic; Cmax [28]: 230 nM; Tmax [29]: 0.5 h
O=C(O)c1ccc(Oc2ccc(-c3ccc(-c4nc5cc(Cl)ccc5[nH]4)cn3)cn2)cc1	–	5.87	8.36	8.89	5.71	–	solubility [30]: < 1 µM; logD [10]: 1.49
O=C(O)C[C@H]1CC[C@H](OC2CCN(c3ccc(-c4nc5c(F)cc(F)cc5[nH]4)cn3)CC2)CC1	6.28	5.39	7.96	8.39	< 5.00	65%	–
O=C(O)C[C@H]1CC[C@H](OC2CCN(c3ccc(-c4nc5cc(C(F)(F)F)ccc5[nH]4)cn3)CC2)CC1	5.74	5.31	8.34	8.70	< 5.00	57%	–
Cc1ccc2[nH]c(-c3ccc(-c4ccc(O[C@H]5CC[C@@H](CC(=O)O)CC5)nc4)nc3)nc2n1	6.31	< 4.22	–	7.51	< 5.00	–	–
O=C(O)C[C@H]1CC[C@H](OC2CCN(c3ccc(-c4nc5cc(Cl)ccc5[nH]4)cn3)CC2)CC1	6.17	5.35	7.66	8.51	< 5.00	–	–
O=C(O)C[C@H]1CC[C@H](OC2CCN(c3ccc(-c4nc5c(F)cccc5[nH]4)cn3)CC2)CC1	6.04	4.97	7.67	8.10	< 5.00	92%	–
COc1ccc2[nH]c(-c3ccc(-c4ccc(O[C@H]5CC[C@@H](CC(=O)O)CC5)nc4)nc3)nc2n1	5.92	4.42	8.01	7.94	< 5.70	96%	Activity (Adenosine receptor A2a [12]): Active
Oc1ccc(-c2ccc(-c3nc4cc(C(F)(F)F)ccc4[nH]3)cc2)cn1	–	5.65	–	8.19	5.42	–	Ratio IC50 (Homo sapiens): > 500
